Test results: patent US8952024B2, “Herbicidal pyrimidone derivatives” (E I du Pont de Nemours and Company, priority 2009, dated 2015)

Tests used:
Assay type in all cases: in vivo
[1] = tested on: winter barley (Hordeum vulgare); assay: Test B postemergence plant response; conditions: for Plant response rating, Barley: Postemergence
Summary of the method: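 Plants at the 1- to 4-leaf stage (2 to 18 cm tall), grown in pots of peat moss/vermiculite medium with wetting agent and starter nutrients, received postemergence applications of test chemicals. After 13 to 15 days in a greenhouse, injury was rated visually against untreated controls on a 0 (no effect) to 100 (complete control) scale.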

[2] = tested on: morningglory (Ipomoea spp.); assay: Test A pre-/postemergence plant response
Summary of the method: (§1)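 Visual injury rating on a 0–100 scale (0 = no effect, 100 = complete control) was made versus untreated controls after about ten days in the greenhouse. Compounds, formulated in a non-phytotoxic solvent mix containing surfactant, were sprayed preemergence onto loam/sand soil and postemergence onto one- to two-leaf plants.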

[3] = tested on: wheat (Triticum aestivum); assay: Test A pre-/postemergence plant response
Summary of the method: as §1

[4] = tested on: giant foxtail (Setaria faberii); assay: Test A pre-/postemergence plant response
Summary of the method: as §1

[5] = tested on: large crabgrass (Digitaria sanguinalis); assay: Test A pre-/postemergence plant response
Summary of the method: as §1

[6] = tested on: pigweed (Amaranthus retroflexus); assay: Test A pre-/postemergence plant response
Summary of the method: as §1

[7] = tested on: velvetleaf (Abutilon theophrasti); assay: Test A pre-/postemergence plant response
Summary of the method: as §1

[8] = tested on: barnyardgrass (Echinochloa crus-galli); assay: Test A pre-/postemergence plant response
Summary of the method: as §1

corn (Zea mays) = assay: Test A pre-/postemergence plant response
Summary of the method: as §1

rice (Oryza sativa) = assay: Test B flooded paddy test; conditions: for Plant response rating, Rice: Flood (flooded paddy test), 13 to 15 days
Summary of the method: (§2)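 Each compound is added to standing floodwater (3 cm above soil, maintained) in pots of 2-leaf-stage plants; greenhouse exposure lasts 13–15 d before visual comparison with controls on a 0–100 control scale.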

[9] = tested on: ducksalad (Heteranthera limosa); assay: Test B flooded paddy test; conditions: for Plant response rating, Ducksalad: Flood (flooded paddy test), 13 to 15 days
Summary of the method: as §2

[10] = tested on: umbrella sedge (Cyperus difformis); assay: Test B flooded paddy test; conditions: for Plant response rating, Sedge, Umbrella: Flood (flooded paddy test), 13 to 15 days
Summary of the method: as §2

[11] = tested on: barnyardgrass (Echinochloa crus-galli); assay: Test B flooded paddy test; conditions: for Plant response rating, Barnyardgrass: Flood (flooded paddy test), 13 to 15 days
Summary of the method: as §2

[12] = Postemergence, 125 g ai/ha, 0 to 100 scale where 0 is no effect and 100 is complete control
[13] = Postemergence, 500 g ai/ha, visual injury, 0 to 100 scale (0 no effect, 100 complete control), approx. ten days
[14] = Preemergence, 125 g ai/ha, 0 to 100 scale, 0 = no effect, 100 = complete control
[15] = Preemergence, 500 g ai/ha, 0 to 100 scale, 0 = no effect, 100 = complete control
[16] = 250 g ai/ha, flooded paddy test, visual rating on 0 to 100 scale (0 no effect, 100 complete control) after 13 to 15 days
[17] = 62 g ai/ha, scale of 0 to 100 where 0 is no effect and 100 is complete control
[18] = 125 g ai/ha, scale 0 to 100, 0 is no effect, 100 is complete control
[19] = Flood, 31 g ai/ha, scale 0 to 100 (0 no effect, 100 complete control)

Cc1ccc(Cl)cc1-n1c(-c2cccc(F)c2)ncc(C(=O)C2=C(O)CCCC2=O)c1=O [Compound 184]
Barley plant response rating (0 to 100 scale) ([1]; 62 g ai/ha, postemergence, 0 is no effect, 100 is complete control, 13 to 15 days): 40 | Plant response rating, Barley ([1]; 31 g ai/ha, 0 to 100 scale (0 no effect, 100 complete control)): 5 | Plant response rating, Barley ([1]; 125 g ai/ha, scale 0 to 100 (0 no effect, 100 complete control)): 60 | Plant response rating, Barley ([1]; 250 g ai/ha, scale 0 to 100 (0 no effect, 100 complete control), 13 to 15 days): 60 | Plant response rating, Morningglory [2, 12]: 50 | Morningglory plant response rating [2, 13]: 100 | Plant response rating, Morningglory [2, 14]: 10 | Plant response rating, Morningglory [2, 15]: 60 | Plant response rating, Wheat [3, 12]: 0 | Wheat plant response rating [3, 13]: 50 | Plant response rating, Wheat [3, 14]: 0 | Plant response rating, Wheat [3, 15]: 0 | Plant response rating, Foxtail, Giant [4, 12]: 90 | Foxtail, Giant plant response rating [4, 13]: 100 | Plant response rating, Foxtail, Giant [4, 14]: 30 | Plant response rating, Foxtail, Giant [4, 15]: 90 | Plant response rating, Crabgrass, Large [5, 12]: 80 | Crabgrass, Large plant response rating [5, 13]: 100 | Plant response rating, Crabgrass, Large [5, 14]: 30 | Plant response rating, Crabgrass, Large [5, 15]: 100 | Plant response rating, Pigweed [6, 12]: 100 | Pigweed plant response rating [6, 13]: 100 | Plant response rating, Pigweed [6, 14]: 70 | Plant response rating, Pigweed [6, 15]: 90 | Plant response rating, Velvetleaf [7, 12]: 100 | Velvetleaf plant response rating [7, 13]: 100 | Plant response rating, Velvetleaf [7, 14]: 80 | Plant response rating, Velvetleaf [7, 15]: 100 | Plant response rating, Barnyardgrass [8, 12]: 90 | Barnyardgrass plant response rating [8, 13]: 100 | Plant response rating, Barnyardgrass [8, 14]: 20 | Plant response rating, Barnyardgrass [8, 15]: 90 | Plant response rating, Corn (corn (Zea mays); [12]): 10 | Corn plant response rating (corn (Zea mays); [13]): 80 | Plant response rating, Corn (corn (Zea mays); [14]): 0 | Plant response rating, Corn (corn (Zea mays); [15]): 20 | Plant response rating, Flood, Rice (rice (Oryza sativa); [16]): 15 | Plant response rating, Rice (rice (Oryza sativa); [17]): 15 | Plant response rating, Rice (rice (Oryza sativa); [18]): 15 | Rice plant response rating (rice (Oryza sativa); [19]): 15 | Plant response rating, Flood, Ducksalad [9, 16]: 100 | Plant response rating, Ducksalad [9, 17]: 100 | Plant response rating, Ducksalad [9, 18]: 100 | Ducksalad plant response rating [9, 19]: 95 | Plant response rating, Flood, Sedge, Umbrella [10, 16]: 95 | Plant response rating, Sedge, Umbrella [10, 17]: 80 | Plant response rating, Sedge, Umbrella [10, 18]: 80 | Sedge, Umbrella plant response rating [10, 19]: 65 | Plant response rating, Flood, Barnyardgrass [11, 16]: 25 | Plant response rating, Barnyardgrass [11, 17]: 0 | Plant response rating, Barnyardgrass [11, 18]: 20 | Barnyardgrass plant response rating [11, 19]: 0
